Assay results: patent publication US5948931A (priority 1997, dated 1999)
Several values for one entry are separate records, joined by “and”; a condition that tells them apart may be missing. Identical values can stand only once. Entries after “also recorded” stand apart in the source; their conditions may differ. Counter-ions that a name gives are not always drawn. Like-named read-outs stand apart in the source and are kept apart here.

Tests used:
[1] = Stability of C-esters of Troika acid (E-2) in water; format: physicochemical
[2] = Stability of DCHA+ salts 3 heated in different solvents (31P NMR); format: physicochemical; details: for degraded at 3.5 h: water, read-out: conversion to phosphate
Experimental: Stability of DCHA^+ Salts 3 Heated in Different Solvents. 40 mg 3 (E or Z) was heated in 5 ml of alcohol mixture, H2 O or acetonitrile. Reaction progress was monitored by ^31 P NMR spectroscopy.

[3] = pH dependence of the stability of DCHA+ salts 3 in D2O (31P NMR); format: physicochemical; details: 22° C.; for stability in D2O: 24 h, pH 2-8; for remaining at 24 h / Z isomer formed from E-3 (% int, 31P NMR) / F, fragmentation product (HO)2P(O)OH from E-3 (% int) / H, hydrolysis product 4 from E-3 (% int) / E isomer formed from Z-3 (% int, 31P NMR) / F, fragmentation product (HO)2P(O)CN from Z-3 (% int) / H, hydrolysis product 4 from Z-3 (% int): t = 24 h
Experimental: pH Dependence of the Stability of DCHA^+ Salts 3. These experiments were carried out in 5 mm glass NMR tubes in D2 O at 22° C., concentration of 3 0.1% (w/v).

[4] = Alkaline hydrolysis of E-3 and Z-3 to salts 4; format: physicochemical; details: for time to complete hydrolysis: NaOH in D2O; for time of alkaline hydrolysis: aq. NaOH, 25° C., pH 13-14
Experimental: In an additional aspect of the present invention, C-alkyl esters of 3 can be stable under physiological conditions but can be reactive under more vigorous conditions. The stability of the parent Troika acids in H2 O were analyzed. Alkaline hydrolysis by methods known by those skilled in the art of E-3 and Z-3 (preferably, aq. NaOH, at a temperature of 25° C., at pH 13-14) can give the corresponding sodium salts E-4 and Z-4, the Z ester reacting much more rapidly (1 h vs. 70 h for E-3). Both salts 4 can be quite stable at high pH, typically, at pH values greater than 10, and room temperature, but at about pH 6 facile stereospecific fragmentations can be observed. […] The transformation of anti α-keto acid oximes to nitriles in aqueous solution at 40-100°C. is well known to those skilled in the art, but the corresponding process giving a phosphononitrile from a phosphonate α-oxime, observed with Z-4, was unexpected. Furthermore, an additional unexpected result in accordance with the present invention, was the finding that simple removal of the carboxy alkyl group of E-3 can create a reagent (E-4) capable of phosphorylation under mild aqueous conditions.
Synthesis of E4 & 5. 10 N NaOH ([…]) was added to E-3 (10 mg) in D2 O (0.4 ml) in an NMR tube, raising the pH to ~13. Hydrolysis was monitored by ^1 H and ^31 P NMR at room temperature. The reaction was complete in 3 d, giving a product identified by ^13 C and ^31 P NMR as E-4. ^13 C NMR (D2 O): δ (ppm) 161.8 (d, ^1 JPC =176 Hz, P--C=N), 175.4 (d, ^2 JPC =21 Hz, C=O); ^31 P NMR (D2 O, pH=13-14): δ (ppm) 2.8.
Acidification of Z-4 & 6. An analogous procedure for E-4 was carried out with the Z-3 isomer. Hydrolysis was complete within 1 h, yielding Z-4. […] (D2 O, pH=13-14): δ (ppm) 161.1 (d, ^1 JPC =127 Hz, P--C=N), […], 171.9 (d, ^2 JPC =17 Hz, C=O); ^31 P NMR (D2 O, pH=13-14): δ (ppm), 2.0.

[5] = for fragmentation product: about pH 6; for stability at high pH: pH greater than 10, room temperature
[6] = format: physicochemical
[7] = Photochemical activation (UV irradiation) of ONBCE-TA in Tris buffer; format: physicochemical
Experimental: Photochemical Activation Example. 5 mg of o-Nitrobenzyl (E)-dihydroxyphosphinyl)(hydroxyimino)acetate (ONBCE-TA) (prepared analogously to PNHDA) dissolved in 0.5 ml of 100 mM Tris buffer (pH 6.9) was irradiated in a Rayonet apparatus for 17 hr at 39° C. Phosphoric acid (the product from phosphorylation of solvent water) was obtained, yield 11%. The phosphorylation was not noticed in the absence of UV irradiation.

[8] = pH 10, 27° C.; known to those skilled in the art; cited from earlier work
[9] = Exp 2, EtOH:i-PrOH 1:1, 79° C., 30 h
[10] = Exp 3, EtOH:t-BuOH 1:1, 79° C., 28 h
[11] = Exp 5, H2O (pH 6-7), 82-84° C., 4.0 h
[12] = Exp 8, H2O (pH 6-7), 82-84° C., 5.7 h

COC(=O)/C(=N\O)P(=O)(O)O [E-2, methyl α-(hydroxyimino)phosphonoacetic acid]
stability in water ([1]; H2O at physiological pH): stable | stability in water ([1]; neutral and acidic pH, room temperature): stable at both acidic and neutral pH; also recorded: stable in water at room temperature | thermal stability ([2]; 1 d in refluxing AN, DCHA+ salt): decomposed to polyphosphates

COC(=O)/C(=N\O)P(=O)(O)O [E-3, Dicyclohexylammonium E-Methyl (Hydroxyimino)phosphonoacetate]
stability in D2O [3]: stable | E isomer (% int, 31P NMR) ([3]; t = 0, pH 2.0, D2O): 100% | E isomer (% int, 31P NMR) ([3]; t = 0, pH 4.0, D2O): 100% | E isomer (% int, 31P NMR) ([3]; t = 0, pH 6.2, D2O): 100% | E isomer (% int, 31P NMR) ([3]; t = 0, pH 8.1, D2O): 100% | E isomer (% int, 31P NMR) ([3]; t = 0, pH 10.4, D2O): 100% | E isomer (% int, 31P NMR) ([3]; t = 0, pH 11.0, D2O): 100% | remaining at 24 h ([3]; pH 2.0, D2O, read-out: E isomer (% int, 31P NMR)): 100% | remaining at 24 h ([3]; pH 4.0, D2O, read-out: E isomer (% int, 31P NMR)): 100% | Z isomer formed from E-3 (% int, 31P NMR) ([3]; pH 6.2, D2O): 8.9% | remaining at 24 h ([3]; pH 6.2, D2O, read-out: E isomer (% int, 31P NMR)): 91.1% | Z isomer formed from E-3 (% int, 31P NMR) ([3]; pH 8.1, D2O): 8.7% | remaining at 24 h ([3]; pH 8.1, D2O, read-out: E isomer (% int, 31P NMR)): 91.3% | F, fragmentation product (HO)2P(O)OH from E-3 (% int) ([3]; pH 10.4, D2O): 1.2% | H, hydrolysis product 4 from E-3 (% int) ([3]; pH 10.4, D2O): 6.9% | Z isomer formed from E-3 (% int, 31P NMR) ([3]; pH 10.4, D2O): 3.0% | remaining at 24 h ([3]; pH 10.4, D2O, read-out: E isomer (% int, 31P NMR)): 87.2% | F, fragmentation product (HO)2P(O)OH from E-3 (% int) ([3]; pH 11.0, D2O): 3.6% | H, hydrolysis product 4 from E-3 (% int) ([3]; pH 11.0, D2O): 18.4% | Z isomer formed from E-3 (% int, 31P NMR) ([3]; pH 11.0, D2O): 1.8% | remaining at 24 h ([3]; pH 11.0, D2O, read-out: E isomer (% int, 31P NMR)): 76.2% | stability on heating ([2]; 5 h in 1:1 MeOH:i-PrOH, 72° C.): unchanged | Et phosphate and i-Pr phosphate formed ([2]; 30 h in 1:1 EtOH:i-PrOH, 79° C.): 84% | Et-phosphate (yield, %) [2, 9]: 48.3% | Z-isomer (yield, %) [2, 9]: 2.5% | i-Pr-phosphate (yield, %) [2, 9]: 35.8% | phosphate (yield, %) [2, 9]: 8.5% | s.m. (%) [2, 9]: 4.9% | Et-phosphate (yield, %) [2, 10]: 33.9% | Z-isomer (yield, %) [2, 10]: 29.4% | phosphate (yield, %) [2, 10]: 9.4% | s.m. (%) [2, 10]: 10.4% | t-Bu-phosphate (yield, %) [2, 10]: 16.9% | phosphate (yield, %) ([2]; Exp 4, H2O (pH 4.0), 82-84° C., 3.5 h): 100% | phosphate (yield, %) [2, 11]: 87.7% | s.m. (%) [2, 11]: 12.3% | phosphate (yield, %) ([2]; Exp 6, MeCN, 81° C., 3.5 h): 0.6% | phosphononitrile (yield, %) ([2]; Exp 6, MeCN, 81° C., 3.5 h): 2.1% | polyphosphates (yield, %) ([2]; Exp 6, MeCN, 81° C., 3.5 h): 80.9% | s.m. (%) ([2]; Exp 6, MeCN, 81° C., 3.5 h): 16.4% | polyphosphate products ([2]; refluxing acetonitrile, several hours): 81% | degraded at 3.5 h ([2]; H2O, pH 4.0, 3.5 h, 82-84° C.): 100% | degraded at 3.5 h ([2]; H2O, pH ~6.5, 3.5 h, 82-84° C.): 88% | time to complete hydrolysis ([4]; pH ~13, room temperature): 3 days | time of alkaline hydrolysis [4]: 70 h

O=C(O)/C(=N\O)P(=O)(O)O [E-4]
fragmentation product [5]: exclusively orthophosphoric acid | stability at high pH [5]: quite stable | half-life (physchem; d2o, pH 5.7): < 10 min | half-life (physchem; water, pH 6): < 10 min

COP(=O)(O)/C(=N/O)C(=O)O [E-13, Bis-DCHA^+ Salt (E-13) of (E)-(Hydroxyimino)-(hydroxymethoxyphosphinyl)acetic Acid]
ethyl and t-butyl methyl phosphate, total ([6]; 1:1 EtOH-t-BuOH): 24% | phosphorylation products ([6]; heated in acetonitrile or EtOH): 16-19%

O=C(OCc1ccccc1[N+](=O)[O-])/C(=N\O)P(=O)(O)O [ONBCE-TA]
phosphoric acid formed (yield) ([7]; UV, 17 hr, 39° C., 100 mM Tris pH 6.9): 11% | phosphorylation without irradiation ([7]; absence of UV irradiation): not noticed

COC(=O)/C(=N/O)P(=O)(O)O [Z-3, Bis(dicyclohexylammonium) Z-Methyl (Hydroxyimino)phosphonoacetate]
stability in D2O [3]: stable | Z isomer (% int, 31P NMR) ([3]; t = 0, pH 2.0, D2O): 100% | Z isomer (% int, 31P NMR) ([3]; t = 0, pH 4.2, D2O): 100% | Z isomer (% int, 31P NMR) ([3]; t = 0, pH 6.7, D2O): 100% | Z isomer (% int, 31P NMR) ([3]; t = 0, pH 8.3, D2O): 100% | Z isomer (% int, 31P NMR) ([3]; t = 0, pH 10.4, D2O): 100% | Z isomer (% int, 31P NMR) ([3]; t = 0, pH 11.0, D2O): 100% | remaining at 24 h ([3]; pH 2.0, D2O, read-out: Z isomer (% int, 31P NMR)): 100% | remaining at 24 h ([3]; pH 4.2, D2O, read-out: Z isomer (% int, 31P NMR)): 100% | E isomer formed from Z-3 (% int, 31P NMR) ([3]; pH 6.7, D2O): 5.0% | remaining at 24 h ([3]; pH 6.7, D2O, read-out: Z isomer (% int, 31P NMR)): 95% | E isomer formed from Z-3 (% int, 31P NMR) ([3]; pH 8.3, D2O): 7.4% | remaining at 24 h ([3]; pH 8.3, D2O, read-out: Z isomer (% int, 31P NMR)): 92.6% | E isomer formed from Z-3 (% int, 31P NMR) ([3]; pH 10.4, D2O): 8.5% | F, fragmentation product (HO)2P(O)CN from Z-3 (% int) ([3]; pH 10.4, D2O): 1.7% | H, hydrolysis product 4 from Z-3 (% int) ([3]; pH 10.4, D2O): 2.6% | remaining at 24 h ([3]; pH 10.4, D2O, read-out: Z isomer (% int, 31P NMR)): 87.2% | F, fragmentation product (HO)2P(O)CN from Z-3 (% int) ([3]; pH 11.0, D2O): 9.2% | H, hydrolysis product 4 from Z-3 (% int) ([3]; pH 11.0, D2O): 14.5% | remaining at 24 h ([3]; pH 11.0, D2O, read-out: Z isomer (% int, 31P NMR)): 76.3% | stability on heating ([2]; 4 h in 1:1 EtOH:i-PrOH, 79° C.): stable | E-isomer (yield, %) [2, 12]: 4.7% and 5% | phosphate (yield, %) [2, 12]: 27.8% and 28% | phosphononitrile (yield, %) [2, 12]: 13.4% and 13% | s.m. (%) [2, 12]: 54.1% | conversion ([2]; H2O, 5.7 h, 82-84° C.): 46% | time to complete hydrolysis ([4]; room temperature): ≤ 0.042 days | time of alkaline hydrolysis [4]: 1 h

O=C(O)/C(=N/O)P(=O)(O)O [Z-4]
fragmentation product [5]: cyanophosphonic acid | stability at high pH [5]: quite stable | half-life (physchem; d2o, pH 6): ~5 min

O=C(CP(=O)(O)O)Oc1ccc([N+](=O)[O-])cc1 [p-nitrophenyl phosphonoacetate]
hydrolysis vs. p-nitrophenyl acetate (times slower) [8]: 250 ×
